Laboratory results taken from patent US20240408112A1, “METHOD FOR PREVENTING OR TREATING PULMONARY ARTERIAL HYPERTENSION BY USING 7-DEHYDROCHOLESTEROLS OR SALTS, OXIDES, METABOLITES, OR DERIVATIVES THEREOF” (EXCELSIOR PHARMATECH LABS., priority 2023, published 2024).
pEC50, pIC50: −log10 of the molar value.

Experiments:
[1] = system: monocrotaline induced pulmonary hypertension rat; test: Monocrotaline-induced pulmonary arterial hypertension rat model, Example 2 (7-DHC, 042); format: in vivo; details: 50 mg/kg IP
Excerpt: (§1) Pulmonary arterial hypertension animal experimental model
(§2) The present disclosure utilizes injection of monocrotaline to induce symptoms of pulmonary arterial hypertension in rats to establish a pulmonary arterial hypertension animal experimental model suitable for screening test drugs.
(§3) The diagnostic method of clinical pulmonary arterial hypertension standards is right heart catheterization, which is defined as mean pulmonary arterial pressure (mPAP) greater than or equal to 20 mmHg. The diagnostic criteria for pulmonary arterial hypertension, in addition to an increase in mean pulmonary arterial pressure, need to be combined with pulmonary vascular resistance (PVR) greater than 3 Wood unit. The right ventricle pressure (RVP) and systemic mean blood pressure (mbp) in rats with pulmonary arterial hypertension were measured by Millar Model PCU200 pressure system, and the heart rate (HR) was also monitored at the same time. After measuring the hemodynamic data, the arterial blood was extracted from the carotid artery of the pulmonary arterial hypertension rat, and the Abbott blood oximeter (i-STAT) combined with Abbott's special chip cartridge (i-STAT Cartridge G3+) was used to measure arterial gas analysis data such as pH, PaO2, PaCO2, HCO3 and base excess (BE) value in quantitative whole blood samples. The normal pH value is between 7.35 and 7.45, and the pH value indicates whether the experimental animal has the condition of acidemia, alkalemia, acidosis or alkalosis. The normal value of PaO2 is between 80 and 100 mmHg, which reflects the effectiveness of gas exchange (ventilation/perfusion). The normal value of PaCO2 is between 35 and 45 (such as 38 and 42) mmHg, which can evaluate the effectiveness of alveolar ventilation. The acid produced by food, tissue decomposition, inflammation and hypoxia rely on the lungs to excrete volatile acid CO2 (short-term) and the bicarbonate (HCO3^−) produced by the kidneys (long-term) to neutralize non-volatile acids, while the normal value of bicarbonate hydrogen radical (HCO3^−) is between 22 and 26 meq/L. BE is the base excess value, its normal value ranges from −2 to +2, the negative value represents the degree of alkali ion deficiency in the blood, a negative BE value (−) that is too high indicates metabolic acidosis, and a positive value (+) that is too high is metabolic alkalosis. At the end of the experiment, the rats were sacrificed and their hearts were removed and the left and right ventricles were separated and weighed (RV)/(S)+(LV).
Monocrotaline (MCT) was utilized to induce pulmonary hypertension rat animal model, the TGF-β receptor inhibitor 7-DHC (039) and compound No. 042 were tested via intraperitoneal (IP) administration, and the physiological parameters of the animals were collected, wherein includes measuring right ventricle pressure, systemic arterial pressure, heartbeat and right ventricle hypertrophy, as well as observing and analyzing the pulmonary artery thickening and blood oxygenation levels through pathological sections of lung tissue. Specifically, 7-DHC (039) was divided into two groups with a dosage of 10 mg/kg or 20 mg/kg, the dosage of group 042 was 50 mg/kg, each dosage group has 3 rats (n=3), while the control group (CON) and the pulmonary arterial hypertension rat group (MCT) had 6 rats (n=6) respectively.

[2] = system: TGF-β-stimulated PAI-1 promoter activity; test: TGF-β stimulated Pai-1 luciferase assay in MLECs-clone32 cells; format: cell-based; details: TGF-β 50 pM, 4 hours, read-out: IC50 value of compound inhibiting TGF-β-stimulated Pai-1 luciferase activity (%)
Excerpt: TGF-β Stimulated Pai-1 Luciferase Assay
MLECs-clone32 cell line was used to measure the impact of different compounds on the downstream gene, plasminogenactivator inhibitor 1 (PAI-1) performance stimulated by TGF-β. MLECs-clone32 is an expression construct that is stably transfected for the Mv1Lu cell line, and the expression construct PAI-1 Luciferase contains a truncated (PAI-1) promoter fused to the firefly luciferase reporter gene^11,12. The activity stimulated by the truncated PAI-I promoter was quantified by using a luciferase assay. The luciferase activity stimulated by TGF-β in cells without compound treatment was set as 100%, and the effects of each compound on TGF-β-stimulated PAI-I promoter activity were compared. The steps for measuring Pai-1 luciferase activity include using a 96-well plate (DMEM medium containing 10% FBS), seeding each well with 1.5×10^5 cells, and culturing in an incubator overnight. After discarding the medium the next day, cells in DMEM medium with or without the addition of test compounds were treated with recombinant TGF-β (50 pM) and allowed to react in a 37° C. incubator for 4 hours. The cell culture medium was aspirated, washed with PBS, and the activity of Pai-1 luciferase was evaluated by luciferase assay.

[3] = system: PAH rat pulmonary artery smooth muscle cells (rPASMC MCT); test: BrdU cell proliferation assay, 0.1% FBS, 100 pM TGF-β, rPASMC MCT; format: cell-based; details: Rattus norvegicus
Procedure: (§4) BrdU (5-bromo-2-deoxyuridine) cell proliferation assay (BrdU assay)
(§5) A 48-well plate was used, and 1.5×10^4 cells were implanted in each well. After 24 hours, the medium was changed to serum-free culture medium and synchronized for 24 hours. A 2-fold concentration of the compound in serum-free culture medium is prepared and the cells were pretreated for 1 hour. Then, the same volume of culture medium containing 20% fetal bovine serum (FBS) was added to dilute the compound. The final concentration was 10% FBS culture medium and 1 times the concentration of the compound. In the experimental group that added TGF-β, the same volume of TGF-β culture medium containing 10 ng/mL was added, with a final concentration of 5 ng/mL TGF-β and 1 times the concentration of the compound, and in the experimental group added with TGF-β, the entire process was conducted in culture medium containing 0.1% serum. Then, BrdU reagent was added about 6 hours later, and the cells were collected the next day for enzyme-linked immunosorbent assay (ELISA) analysis, the compound treatment time was about 24 hours, and the BrdU treatment time was about 18 hours.
(§6) Five compounds to be tested were screened by cell survival assay (MTT assay) and BrdU (5-bromo-2-deoxyuridine) cell proliferation assay, and the information of these compounds was listed in Table 1 below. Tables 2 and 3 respectively listed the growth inhibitions of on human pulmonary artery endothelial cells (hPAEC), human pulmonary artery smooth muscle cells (hPASMC), normal rat pulmonary artery smooth muscle cells (rPASMC, as the control group, represented by “CON”), and rat pulmonary artery smooth muscle cells (represented by “MCT”), by the five compounds to be tested under the conditions of 10% FBS, 0.1% FBS and 100 pM TGF-β.

[4] = system: normal rat pulmonary artery smooth muscle cells (rPASMC CON); test: BrdU cell proliferation assay, 0.1% FBS, 100 pM TGF-β, rPASMC CON; format: cell-based; details: Rattus norvegicus
Procedure: as §4
as §5, with “with a final concentration of 5 ng/mL TGF-β and 1 times the concentration” left out
Five compounds to be tested were screened by cell survival assay (MTT assay) and BrdU (5-bromo-2-deoxyuridine) cell proliferation assay, and the information of these compounds was listed in Table 1 below.

[5] = system: human pulmonary artery smooth muscle cells (hPASMC); test: BrdU cell proliferation assay, 10% FBS, hPASMC; format: cell-based; details: Homo sapiens, read-out: EC50 (concentration for 50% of maximal effect)
Procedure: as §4, §5, §6

[6] = system: human pulmonary artery endothelial cells (hPAEC); test: BrdU cell proliferation assay, 0.1% FBS, 100 pM TGF-β, hPAEC; format: cell-based; details: Homo sapiens, Endothelial cell
Procedure: as §4, §5, §6

[7] = system: human pulmonary artery smooth muscle cells (hPASMC); test: BrdU cell proliferation assay, 0.1% FBS, 100 pM TGF-β, hPASMC; format: cell-based; details: Homo sapiens
Procedure: as §4, §5, §6

[8] = system: human pulmonary artery endothelial cells (hPAEC); test: BrdU cell proliferation assay, 10% FBS, hPAEC; format: cell-based; details: Homo sapiens, Endothelial cell, read-out: EC50 (concentration for 50% of maximal effect)
Procedure: as §4, §5, §6

[9] = system: PAH rat pulmonary artery smooth muscle cells (rPASMC MCT); test: BrdU cell proliferation assay, 10% FBS, rPASMC MCT; format: cell-based; details: Rattus norvegicus, read-out: EC50 (concentration for 50% of maximal effect)
Procedure: as §4, §5, §6

[10] = system: normal rat pulmonary artery smooth muscle cells (rPASMC CON); test: BrdU cell proliferation assay, 10% FBS, rPASMC CON; format: cell-based; details: Rattus norvegicus, read-out: EC50 (concentration for 50% of maximal effect)
Procedure: as §4, §5, §6

[11] = system: monocrotaline induced pulmonary arterial hypertension rat; test: Monocrotaline-induced pulmonary arterial hypertension rat model, Example 3 (7-DHC vs macitentan); format: in vivo; details: 30 mg/kg oral
Excerpt: as §1, §2, §3
Monocrotaline was utilized to induce pulmonary arterial hypertension rat animal model, intraperitoneal injection (IP) TGF-β receptor inhibitor 7-DHC (039) and oral administration of macitentan (soluble in methylcellulose), 7-DHC (039) was divided into two groups according to the dosage: 10 mg/kg or 20 mg/kg, and the dosage of macitentan group was 30 mg/kg.

[12] = MCT (PAH rPASMC), 100 pM TGF-β, 0.1% FBS, read-out: EC50
[13] = CON (normal rPASMC), 100 pM TGF-β, 0.1% FBS, read-out: EC50
[14] = hPAEC, 100 pM TGF-β, 0.1% FBS, read-out: EC50
[15] = hPASMC, 100 pM TGF-β, 0.1% FBS, read-out: EC50

SMILES | pIC50 [2] | pEC50 [3, 12] | pEC50 [4, 13] | pEC50 [5] | pEC50 [6, 14] | pEC50 [7, 15] | pEC50 [8] | pEC50 [9] | pEC50 [10] | also measured
O=c1cc(-c2ccccc2)oc2cc(O)c(O)c(O)c12 [Code 042, Baicalein] | 4.83 | 5.05 | 4.28 | 5.30 | 4.82 | 5.40 | 4.70 |  |  | Right ventricle hypertrophy (RV/S+LV), in words ([1]; compared with MCT rats): slightly lower; Weight and activity of the rats ([1]; second week of administration, sacrificed early on day 21): significantly decreased
O=c1c(O)c(-c2ccc(O)c(O)c2)oc2cc(O)ccc12 [Code 050, Fisetin] | 4.36 | 4.10 | 3.97 |  | 4.40 | 4.46 |  |  |  | pEC50 ([9]; MCT (PAH rPASMC), 10% FBS): 4.42; pEC50 ([10]; CON (normal rPASMC), 10% FBS): 4.23; pEC50 ([5]; hPASMC, 10% FBS): 4.57; pEC50 ([8]; hPAEC, 10% FBS): 4.66
CCCNS(=O)(=O)Nc1ncnc(OCCOc2ncc(Br)cn2)c1-c1ccc(Br)cc1 [Code 053, Macitentan] | 4.08 | 4.06 | 4.02 | 4.00 | 4.40 | 4.23 | 3.76 | 3.94 | 3.85 | Blood vessel thickening, in words [11]: reduction in blood vessel thickening was also observed; Survival rate compared with the 7-DHC (039) group, in words [11]: significantly worse; Animal survival status ([11]; 23rd day after monocrotaline induction): died; Body weight and activity of the rats ([11]; second week of administration): not greatly affected
O=C(O)[C@H](O)Cc1ccc(O)c(O)c1 [Code 056, Danshensu] |  |  |  | 3.91 |  |  | 3.57 | 4.60 | 4.46 | pEC50 [3]: 4.44; pEC50 [4]: 4.30; pEC50 [6]: 3.81; pEC50 [7]: 4.00
CC(C)CCC[C@@H](C)[C@H]1CC[C@H]2C34C=CC5(C[C@@H](OC(=O)CBr)CC[C@]5(C)[C@H]3CC[C@]12C)n1c(=O)n(C)c(=O)n14 (stereo partly shown) [Code 203, MeTC7] | 4.76 |  |  |  |  |  |  |  |  | 
